Patent US20250144105A1, “CDK9 INHIBITORS” (Origenis GmbH, priority 2022, published 2025)

Target: T1, CDK9/CyclinT1 (Homo sapiens, UniProt P50750)
T1 construct: purchased ProQinase/Reaction Biology, USA 0371-0345-1
Experiment: CDK9/T1 ADPGlo kinase assay for inhibitory activity
Assay type: biochemical
Conditions: CDK9/CyclinT1 6 nM, PDKtide 40 microM, ATP 10 microM, 120 min at RT, luminescence readout
Method: The testing compound was evaluated in 12 concentrations in a 1:3 dilution series, starting from 5 microM as the highest concentration.
In a white 384 microplate (Greiner bio-one, Austria #784904,) with 2 microL of 3-fold concentrated CDK9/CyclinT1 (ProQinase/Reaction Biology, USA #0371-0345-1, LOT.: 012), final concentration (f.c.) 6 nM, in 1× kinase buffer, 2 microL of compound (3× fold concentrated in f.c. 1.66% DMSO/H2O) was added and incubated at Room Temperature (RT) for 10 min. Then 2 microL of Substrate/ATP-Mix (3× PDKtide f.c. 40 microM, SignalChem Biotech, Canada via Biozol, Eching, Germany #P10-58, LOT.: L2230-7 and 3× UltraPure ATP f.c. 10 microM (ADP Glo Kinase assay, Promega GmbH, Germany #V9102)) were added, mixed and incubated for 120 min at RT.
After incubation time, 5 microL of ADP Glo reagent (ready to use, ADP Glo Kinase assay, Promega GmbH, Germany #V9102) were added, mixed and incubated for 40 min at RT. In the last step, 10 microL of ADP Glo Detection reagent (ready to use, ADP Glo Kinase assay, Promega GmbH, Germany #V9102) were added, mixed and incubated for 30 min at RT. GloMax Discover GM3000 Reader (Promega GmbH, Germany 9700000249) was used for the readout.
The inhibitor concentration was plotted against the luminescence to determine the IC50 using XLFit 5.5 (IDBS, Guildford) to fit to a sigmoidal dose response curve with a variable slope.

T1 sequence (P50750 whole entry): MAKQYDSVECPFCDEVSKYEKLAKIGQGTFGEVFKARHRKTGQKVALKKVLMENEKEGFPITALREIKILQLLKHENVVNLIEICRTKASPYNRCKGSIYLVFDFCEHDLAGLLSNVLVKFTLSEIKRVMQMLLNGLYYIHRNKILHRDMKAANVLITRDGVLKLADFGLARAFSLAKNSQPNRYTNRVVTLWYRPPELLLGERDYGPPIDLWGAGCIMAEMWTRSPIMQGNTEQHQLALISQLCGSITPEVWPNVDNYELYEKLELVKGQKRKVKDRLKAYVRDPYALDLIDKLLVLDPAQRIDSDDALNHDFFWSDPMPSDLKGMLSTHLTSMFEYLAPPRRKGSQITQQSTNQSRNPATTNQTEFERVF
T1 sequence (O60563 whole entry partner): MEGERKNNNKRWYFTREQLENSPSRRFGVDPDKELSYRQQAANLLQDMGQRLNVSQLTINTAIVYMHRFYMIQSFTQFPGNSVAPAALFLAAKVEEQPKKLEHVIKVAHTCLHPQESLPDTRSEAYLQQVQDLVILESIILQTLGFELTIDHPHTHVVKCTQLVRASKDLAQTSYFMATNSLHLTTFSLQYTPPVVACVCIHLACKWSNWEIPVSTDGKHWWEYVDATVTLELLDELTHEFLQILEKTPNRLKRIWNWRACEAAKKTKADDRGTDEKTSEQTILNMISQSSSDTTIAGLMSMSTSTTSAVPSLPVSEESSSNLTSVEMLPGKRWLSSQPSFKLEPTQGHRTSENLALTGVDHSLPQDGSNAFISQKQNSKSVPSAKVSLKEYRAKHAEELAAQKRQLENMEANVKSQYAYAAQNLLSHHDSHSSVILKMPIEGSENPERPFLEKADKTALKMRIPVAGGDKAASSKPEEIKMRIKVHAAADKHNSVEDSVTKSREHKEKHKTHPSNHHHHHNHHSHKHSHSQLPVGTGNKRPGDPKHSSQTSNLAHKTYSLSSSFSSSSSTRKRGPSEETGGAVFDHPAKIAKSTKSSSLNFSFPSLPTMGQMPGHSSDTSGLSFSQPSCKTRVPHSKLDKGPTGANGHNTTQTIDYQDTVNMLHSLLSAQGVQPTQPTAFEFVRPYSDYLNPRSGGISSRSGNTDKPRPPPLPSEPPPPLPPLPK

**Q.** `Fc1cccc(F)c1-c1nc(N[C@H]2CC[C@H](N3CCOCC3)CC2)c2ncc(Cl)n2n1` [Example #1, 7-chloro-2-(2,6-difluorophenyl)-N-((1r,4r)-4-morpholinocyclohexyl)imidazo[2,1-f][1,2,4]triazin-4-amine] was tested. Which IC50 did it give?
**A.** < 20 nM

**Q.** With `CN(C)[C@H]1CC[C@H](Nc2nc(-c3c(F)cccc3F)nn3c(Cl)cnc23)CC1` [Example #3, (1r,4r)-N1-(7-chloro-2-(2,6-difluorophenyl)imidazo[2,1-f][1,2,4]triazin-4-yl)-N4,N4-dimethylcyclohexane-1,4-diamine] as the compound, how does the IC50 read?
**A.** < 20 nM

**Q.** How did the IC50 turn out when `N[C@H]1CC[C@H](Nc2nc(-c3c(F)cccc3F)nn3c(Cl)cnc23)CC1` [Example #4, (1r,4r)-N1-(7-chloro-2-(2,6-difluorophenyl)imidazo[2,1-f][1,2,4]triazin-4-yl)cyclohexane-1,4-diamine] was run?
**A.** < 20 nM

**Q.** With `Fc1cccc(F)c1-c1nc(N[C@H]2CC[C@H](N3CCCCC3)CC2)c2ncc(Cl)n2n1` [Example #5, 7-chloro-2-(2,6-difluorophenyl)-N-((1r,4r)-4-(piperidin-1-yl)cyclohexyl)imidazo[2,1-f][1,2,4]triazin-4-amine] as the compound, how does the IC50 read?
**A.** < 20 nM

**Q.** `Fc1cccc(F)c1-c1nc(N[C@H]2CC[C@H](N3CCCC3)CC2)c2ncc(Cl)n2n1` [Example #6, 7-chloro-2-(2,6-difluorophenyl)-N-((1r,4r)-4-(pyrrolidin-1-yl)cyclohexyl)imidazo[2,1-f][1,2,4]triazin-4-amine] was tested. Which IC50 did it give?
**A.** < 20 nM

**Q.** With `COCCN[C@H]1CC[C@H](Nc2nc(-c3c(F)cccc3F)nn3c(Cl)cnc23)CC1` [Example #7, (1r,4r)-N1-(7-chloro-2-(2,6-difluorophenyl)imidazo[2,1-f][1,2,4]triazin-4-yl)-N4-(2-methoxyethyl)cyclohexane-1,4-diamine] as the compound, how does the IC50 read?
**A.** < 20 nM

**Q.** For `FCCN[C@H]1CC[C@H](Nc2nc(-c3c(F)cccc3F)nn3c(Cl)cnc23)CC1` [Example #8, (1r,4r)-N1-(7-chloro-2-(2,6-difluorophenyl)imidazo[2,1-f][1,2,4]triazin-4-yl)-N4-(2-fluoroethyl)cyclohexane-1,4-diamine], which IC50 is on record?
**A.** < 20 nM

**Q.** `FCCCN[C@H]1CC[C@H](Nc2nc(-c3c(F)cccc3F)nn3c(Cl)cnc23)CC1` [Example #9, (1r,4r)-N1-(7-chloro-2-(2,6-difluorophenyl)imidazo[2,1-f][1,2,4]triazin-4-yl)-N4-(3-fluoropropyl)cyclohexane-1,4-diamine] was tested. Which IC50 did it give?
**A.** < 20 nM

**Q.** Which IC50 does the source give for `CC(C)N1CCC(Nc2nc(-c3c(F)cccc3F)nn3c(Cl)cnc23)CC1` [Example #10, 7-chloro-2-(2,6-difluorophenyl)-N-(1-isopropylpiperidin-4-yl)imidazo[2,1-f][1,2,4]triazin-4-amine] here?
**A.** < 200 nM

**Q.** `Fc1cccc(F)c1-c1nc(NC2CCN(C3CCOCC3)CC2)c2ncc(Cl)n2n1` [Example #11, 7-chloro-2-(2,6-difluorophenyl)-N-(1-(tetrahydro-2H-pyran-4-yl)piperidin-4-yl)imidazo[2,1-f][1,2,4]triazin-4-amine] was tested. Which IC50 did it give?
**A.** < 200 nM

**Q.** For `Fc1cccc(F)c1-c1nc(NC2CCN(C3CCCC3)CC2)c2ncc(Cl)n2n1` [Example #12, 7-chloro-N-(1-cyclopentylpiperidin-4-yl)-2-(2,6-difluorophenyl)imidazo[2,1-f][1,2,4]triazin-4-amine], which IC50 is on record?
**A.** < 200 nM

**Q.** Which IC50 does the source give for `CN1CCC(Nc2nc(-c3c(F)cccc3F)nn3c(Cl)cnc23)CC1` [Example #13, 7-chloro-2-(2,6-difluorophenyl)-N-(1-methylpiperidin-4-yl)imidazo[2,1-f][1,2,4]triazin-4-amine] here?
**A.** < 20 nM

**Q.** How did the IC50 turn out when `CN1CCCCC1CNc1nc(-c2c(F)cccc2F)nn2c(Cl)cnc12` (stereo not shown) [Example #14, [7-Chloro-2-(2,6-difluoro-phenyl)-imidazo[2,1-f][1,2,4]triazin-4-yl]-(1-methyl-piperidin-2-ylmethyl)-amine] was run?
**A.** < 200 nM

**Q.** Which IC50 does the source give for `CCN1CCCC1CNc1nc(-c2c(F)cccc2F)nn2c(Cl)cnc12` (stereo not shown) [Example #15, 7-chloro-2-(2,6-difluorophenyl)-N-((1-ethylpyrrolidin-2-yl)methyl)imidazo[2,1-f][1,2,4]triazin-4-amine] here?
**A.** < 200 nM

**Q.** `Fc1cccc(F)c1-c1nc(NC2CCNCC2)c2ncc(Cl)n2n1` [Example #16, [7-Chloro-2-(2,6-difluoro-phenyl)-imidazo[2,1-f][1,2,4]triazin-4-yl]-piperidin-4-yl-amine] was tested. Which IC50 did it give?
**A.** < 20 nM

**Q.** How did the IC50 turn out when `CN1CCC(CNc2nc(-c3c(F)cccc3F)nn3c(Cl)cnc23)CC1` [Example #17, [7-Chloro-2-(2,6-difluoro-phenyl)-imidazo[2,1-f][1,2,4]triazin-4-yl]-(1-methyl-piperidin-4-ylmethyl)-amine] was run?
**A.** < 20 nM

**Q.** How did the IC50 turn out when `Fc1cccc(F)c1-c1nc(NC2CN3CCC2CC3)c2ncc(Cl)n2n1` (stereo not shown) [Example #18, (1-Aza-bicyclo[2.2.2]oct-3-yl)-[7-chloro-2-(2,6-difluoro-phenyl)-imidazo[2,1-f][1,2,4]triazin-4-yl]-amine] was run?
**A.** < 200 nM

**Q.** With `Fc1cccc(F)c1-c1nc(NCCN2CCOCC2)c2ncc(Cl)n2n1` [Example #19, [7-Chloro-2-(2,6-difluoro-phenyl)-imidazo[2,1-f][1,2,4]triazin-4-yl]-(2-morpholin-4-yl-ethyl)-amine] as the compound, how does the IC50 read?
**A.** < 200 nM

**Q.** With `CC(C)(C)OC(=O)N1CCCC(CNc2nc(-c3c(F)cccc3F)nn3c(Cl)cnc23)C1` (stereo not shown) [Example #20, tert-butyl 3-(((7-chloro-2-(2,6-difluorophenyl)imidazo[2,1-f][1,2,4]triazin-4-yl)amino)methyl)piperidine-1-carboxylate] as the compound, how does the IC50 read?
**A.** < 200 nM

**Q.** How did the IC50 turn out when `Fc1cccc(F)c1-c1nc(NCC2CCNCC2)c2ncc(Cl)n2n1` [Example #21, 7-chloro-2-(2,6-difluorophenyl)-N-(piperidin-4-ylmethyl)imidazo[2,1-f][1,2,4]triazin-4-amine] was run?
**A.** < 200 nM

**Q.** How did the IC50 turn out when `Fc1cccc(F)c1-c1nc(NCC2CCCNC2)c2ncc(Cl)n2n1` (stereo not shown) [Example #22, 7-chloro-2-(2,6-difluorophenyl)-N-(piperidin-3-ylmethyl)imidazo[2,1-f][1,2,4]triazin-4-amine] was run?
**A.** < 200 nM

**Q.** `NC1CCC(Nc2nc(-c3c(F)cccc3F)nn3c(Cl)cnc23)C1` (stereo not shown) [Example #24, N1-(7-chloro-2-(2,6-difluorophenyl)imidazo[2,1-f][1,2,4]triazin-4-yl)cyclopentane-1,3-diamine] was tested. Which IC50 did it give?
**A.** < 20 nM

**Q.** With `Fc1cccc(Cl)c1-c1nc(N[C@H]2CC[C@H](N3CCOCC3)CC2)c2ncc(Cl)n2n1` [Example #27, 7-chloro-2-(2-chloro-6-fluorophenyl)-N-((1r,4r)-4-morpholinocyclohexyl)imidazo[2,1-f][1,2,4]triazin-4-amine] as the compound, how does the IC50 read?
**A.** < 20 nM

**Q.** With `Clc1cccc(Cl)c1-c1nc(N[C@H]2CC[C@H](N3CCOCC3)CC2)c2ncc(Cl)n2n1` [Example #28, 7-chloro-2-(2,6-dichlorophenyl)-N-((1r,4r)-4-morpholinocyclohexyl)imidazo[2,1-f][1,2,4]triazin-4-amine] as the compound, how does the IC50 read?
**A.** < 20 nM

**Q.** With `OCCN[C@H]1CC[C@H](Nc2nc(-c3c(F)cccc3F)nn3c(Cl)cnc23)CC1` [Example #32, 2-(((1r,4r)-4-((7-chloro-2-(2,6-difluorophenyl)imidazo[2,1-f][1,2,4]triazin-4-yl)amino)cyclohexyl)amino)ethan-1-ol] as the compound, how does the IC50 read?
**A.** < 20 nM

**Q.** `Fc1cccc(F)c1-c1nc(NCc2cccnc2)c2ncc(Cl)n2n1` [Example #36, 7-chloro-2-(2,6-difluorophenyl)-N-(pyridin-3-ylmethyl)imidazo[2,1-f][1,2,4]triazin-4-amine] was tested. Which IC50 did it give?
**A.** < 200 nM

**Q.** Which IC50 does the source give for `Cc1cc(C)c(CNc2nc(-c3c(F)cccc3F)nn3c(Cl)cnc23)cn1` [Example #37, 7-chloro-2-(2,6-difluorophenyl)-N-((4,6-dimethylpyridin-3-yl)methyl)imidazo[2,1-f][1,2,4]triazin-4-amine] here?
**A.** < 200 nM

**Q.** With `CN1CCN([C@H]2CC[C@H](Nc3nc(-c4c(F)cccc4F)nn4c(Cl)cnc34)CC2)CC1` [Example #38, 7-chloro-2-(2,6-difluorophenyl)-N-((1r,4r)-4-(4-methylpiperazin-1-yl)cyclohexyl)imidazo[2,1-f][1,2,4]triazin-4-amine] as the compound, how does the IC50 read?
**A.** < 20 nM
